This is an account of results in patent US20180014536A1, “AGENT FOR IMPROVING PLANT GROWTH AND METHOD FOR PRODUCING PLANT USING SAME” (FUSO CHEMICAL CO., LTD., priority 2015, published 2018).

Assay [1] deals with Japanese mustard spinach. The experiment in a line: Verification experiment 1: high temperature stress, hydroponics (first time). The format is in vivo. Particulars: first time. The protocol:
In order to confirm that the above substances have an efficacy such as alleviation of the various stresses on a plant or promotion of plant growth, some verification experiments were conducted. In each of the verification experiments, solutions of the above substances were used. A concentration thereof was in a range from 0.01 ppm to 10 ppm, in order to exert a sufficient efficacy on a plant. This concentration was appropriately adjusted for each verification experiment. For comparison, similar verification experiments using sanguinarine were conducted. In such a verification experiment for an identical purpose to the above, a concentration of sanguinarine was set to be identical to those of the above substances. A verification experiment for high temperature stress was conducted by use of Japanese mustard spinach. The experiment was conducted in the following procedures. […] Note that the agent used was zerumbone.

Assay [2] has as its system Japanese mustard spinach. The experiment in a line: Verification experiment 2: high temperature and low sunshine stress, hydroponics (second time-B).
Assay [3] relates to Japanese mustard spinach. The experiment in a line: Verification experiment 2: high temperature stress, hydroponics, plenty of sunlight (second time-A).

Several values for one entry are separate records, joined by “and”; a condition that tells them apart may be missing. Equal entries are not always repeated.

With `C[n+]1cc2c3c(ccc2c2ccc4cc5c(cc4c21)OCO5)OCO3` [Sanguinarine, sanguinarine, reference compound], the “Average” value in the assay on Japanese mustard spinach [1] (average weight of 10 samples) was found to be 1.574 g; in the assay with Japanese mustard spinach [2] (second time-B) it was 1.838 g; in the assay with Japanese mustard spinach [3] (second time-A), 2.090 g. The “weights greater than those of the control samples” value is “approximately 3%” with Japanese mustard spinach [1] (average weights compared) and “approximately 11%” in the assay on Japanese mustard spinach [3] (Table 2 experiment). The “Growth ratio (%)” value stood at 103.2% in the assay on Japanese mustard spinach [1] (control = 100.0); 116.7% in the assay with Japanese mustard spinach [2] (control = 100.0, second time-B); 110.7% in the assay with Japanese mustard spinach [3] (control = 100.0, second time-A). Moreover, the “Weight of 10 samples” value with Japanese mustard spinach [1] (dry weight of 10 seedlings, leaf spray, nine days culture, maximum temperature 30-43 °C, plenty of sunlight) was 1.554 g and 1.538 g and 1.594 g and 1.610 g; with Japanese mustard spinach [2] (dry weight of 10 seedlings, nine days, 30-43 °C, almost no sunlight, second time-B) it was 1.802 g and 1.873 g; in the assay on Japanese mustard spinach [3] (dry weight of 10 seedlings, nine days, 30-43 °C, plenty of sunlight, second time-A) it was 1.996 g and 2.027 g and 2.156 g and 2.179 g. The “growth better than the growth of the control samples” value with Japanese mustard spinach [2] (Table 3 experiment, almost no sunlight) was “approximately 17%”.
